Paper PMC6054692, “Library screening of cell-penetrating peptide for BY-2 cells, leaves of Arabidopsis, tobacco, tomato, poplar, and rice callus” (Scientific Reports, 2018)

System: BY-2 cells
Test: Cell penetration efficiency into BY-2 suspension culture cells (CLSM of TAMRA-labeled CPP)
Conditions: negative control without CPP, 15 min, 1 h, 3 h and 6 h at 26 °C, BY-2 cells 3 days after subculture
Procedure: To evaluate the cell penetration efficiency of the 55 CPPs into BY-2 suspension culture cells, we first optimized the CPP concentration and cell density using BP100 as a model CPP. The cell penetration efficiency of CPP into BY-2 cells was determined based on the ratio of numbers of cell with and without TAMRA signals of CPP by confocal laser scanning microscopy (CLSM) (Fig. 2). […] Thus, we used the BY-2 cells at 3 days after subculture as well as the incubation time of 3 hours for all the experiments in this study.
Suspension-cultured tobacco (Nicotiana tabacum) cv. BY-2 cells were provided by the RIKEN Bio Resource Center. […]
The penetration efficiency of CPPs into BY-2 suspension cells and young true leaves of N. benthamiana, A. thaliana, Moneymaker tomato, O. sativa Nipponbare, and poplar, and O. sativa callus was determined using confocal laser scanning microscopy (CLSM, ZeissLSM 700, Carl Zeiss, Oberkochen, Germany). The intracellular localization of TAMRA-labeled CPP was observed using excitation at 555 nm for the detection of TAMRA fluorescence. The total number of cells was counted using differential interfering contrast images. The efficiency was determined as follows: Cellpenetrationefficiency(%)=(thenumberofstainedcells)/(thenumberoftotalcells)×100 Various BY-2 cell concentrations (230 to >1000 cells/µL) of BY-2 cells were tested to determine the optimal cell concentration. […]

CN(C)c1ccc2c(-c3ccc(C(=O)O)cc3C(=O)[O-])c3ccc(N(C)C)cc3[o+]c2c1 [TAMRA, 5-carboxytetramethylrhodamine]
Penetration of TAMRA alone into BY-2 cells: could not penetrate
